From PMC7442682 (Chemical biology & drug design, 2020) come the findings set out here.

The target in one test is T1, α2C adrenergic receptor (Homo sapiens, UniProt P18825).
T1 sequence (P18825 1-462): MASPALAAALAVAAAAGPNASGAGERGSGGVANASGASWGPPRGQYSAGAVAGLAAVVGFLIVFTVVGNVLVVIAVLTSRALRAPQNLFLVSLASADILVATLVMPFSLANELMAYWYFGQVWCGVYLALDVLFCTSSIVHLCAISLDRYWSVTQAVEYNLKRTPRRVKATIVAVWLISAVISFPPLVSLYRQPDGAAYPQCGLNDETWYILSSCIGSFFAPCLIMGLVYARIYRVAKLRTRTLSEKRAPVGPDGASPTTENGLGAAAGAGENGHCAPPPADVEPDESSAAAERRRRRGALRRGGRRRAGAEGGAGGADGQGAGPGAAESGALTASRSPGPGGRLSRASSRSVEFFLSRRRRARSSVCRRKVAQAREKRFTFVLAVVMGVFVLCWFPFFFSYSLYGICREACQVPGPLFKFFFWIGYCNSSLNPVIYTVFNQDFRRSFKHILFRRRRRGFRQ
Nature of the test: PDSP radioligand binding, α2C adrenergic receptor.

A further test has as its target 5-HT5A receptor (Homo sapiens, UniProt P47898). Nature of the test: PDSP radioligand binding, 5-HT5A receptor.
The next test addresses T2, α2B adrenergic receptor (Homo sapiens, UniProt P18089).
T2 sequence (P18089 1-450): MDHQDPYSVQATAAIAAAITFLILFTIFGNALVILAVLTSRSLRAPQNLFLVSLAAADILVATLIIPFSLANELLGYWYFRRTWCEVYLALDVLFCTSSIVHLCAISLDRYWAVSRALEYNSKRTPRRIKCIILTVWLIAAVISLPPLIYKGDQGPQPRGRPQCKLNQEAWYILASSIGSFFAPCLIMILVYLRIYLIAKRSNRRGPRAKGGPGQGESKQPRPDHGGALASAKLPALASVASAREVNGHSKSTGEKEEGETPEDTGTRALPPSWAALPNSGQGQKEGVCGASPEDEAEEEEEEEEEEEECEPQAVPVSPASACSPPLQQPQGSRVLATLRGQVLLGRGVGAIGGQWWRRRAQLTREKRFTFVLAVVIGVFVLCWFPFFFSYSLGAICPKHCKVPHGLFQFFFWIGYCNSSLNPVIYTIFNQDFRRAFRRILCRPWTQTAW
Nature of the test: PDSP radioligand binding, α2B adrenergic receptor.

The target in a further test is 5-HT6 receptor (Homo sapiens, UniProt P50406). Nature of the test: PDSP radioligand binding, 5-HT6 receptor. The following applies: for 5-HT6 selectivity versus the other receptors tested: versus all other dopamine, serotonin and adrenergic receptors tested.
5-HT6 receptor, sequence (P50406 whole entry): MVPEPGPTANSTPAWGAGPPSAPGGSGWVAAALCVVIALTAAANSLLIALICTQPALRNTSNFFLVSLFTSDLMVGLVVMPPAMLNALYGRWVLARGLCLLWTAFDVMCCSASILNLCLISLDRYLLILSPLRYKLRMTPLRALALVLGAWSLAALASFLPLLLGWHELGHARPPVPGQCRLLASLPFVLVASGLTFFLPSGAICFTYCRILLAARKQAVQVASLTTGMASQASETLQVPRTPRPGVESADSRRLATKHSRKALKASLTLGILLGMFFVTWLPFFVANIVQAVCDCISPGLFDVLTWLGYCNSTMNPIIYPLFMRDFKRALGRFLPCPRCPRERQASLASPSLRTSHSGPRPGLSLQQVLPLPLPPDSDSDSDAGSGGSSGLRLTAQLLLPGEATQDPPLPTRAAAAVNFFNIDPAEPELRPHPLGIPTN
A further test has as its target T3, D4 receptor (Homo sapiens, UniProt P21917).
T3 sequence (P21917 1-419): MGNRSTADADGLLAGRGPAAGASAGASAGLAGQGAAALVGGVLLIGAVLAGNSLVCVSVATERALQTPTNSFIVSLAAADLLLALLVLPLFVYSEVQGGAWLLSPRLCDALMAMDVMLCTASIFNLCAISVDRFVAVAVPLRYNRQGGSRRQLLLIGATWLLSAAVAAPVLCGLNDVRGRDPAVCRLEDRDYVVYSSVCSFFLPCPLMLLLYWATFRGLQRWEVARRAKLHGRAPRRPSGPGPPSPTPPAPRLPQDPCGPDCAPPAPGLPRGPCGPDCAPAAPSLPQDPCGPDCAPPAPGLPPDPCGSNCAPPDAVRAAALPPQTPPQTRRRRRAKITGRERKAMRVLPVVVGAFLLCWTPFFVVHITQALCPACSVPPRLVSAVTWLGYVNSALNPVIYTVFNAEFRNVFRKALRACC
Nature of the test: PDSP radioligand binding, dopamine D4 receptor. The following applies: read-out: Ki D4.

The next test concerns the target D1 receptor (Homo sapiens, UniProt P21728). Nature of the test: PDSP radioligand binding, dopamine D1 receptor.
Another test addresses T4, α2A adrenergic receptor (Homo sapiens, UniProt P08913).
T4 sequence (P08913 1-465): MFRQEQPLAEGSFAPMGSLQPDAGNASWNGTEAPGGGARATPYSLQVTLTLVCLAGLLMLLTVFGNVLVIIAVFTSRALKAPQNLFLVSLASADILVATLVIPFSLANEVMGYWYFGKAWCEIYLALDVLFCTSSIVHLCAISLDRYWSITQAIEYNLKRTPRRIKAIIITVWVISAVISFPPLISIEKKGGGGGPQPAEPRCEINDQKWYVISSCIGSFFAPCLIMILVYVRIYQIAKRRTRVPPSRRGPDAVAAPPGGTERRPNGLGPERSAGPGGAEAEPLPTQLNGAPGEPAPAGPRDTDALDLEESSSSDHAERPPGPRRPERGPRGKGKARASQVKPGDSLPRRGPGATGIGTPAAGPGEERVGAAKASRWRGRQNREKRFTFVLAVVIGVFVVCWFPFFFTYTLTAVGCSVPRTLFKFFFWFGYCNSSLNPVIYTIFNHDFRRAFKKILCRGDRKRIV
Nature of the test: PDSP radioligand binding, α2A adrenergic receptor.

In the next test the target is T5, α1A adrenergic receptor (Homo sapiens, UniProt P35348).
T5 sequence (P35348 1-466): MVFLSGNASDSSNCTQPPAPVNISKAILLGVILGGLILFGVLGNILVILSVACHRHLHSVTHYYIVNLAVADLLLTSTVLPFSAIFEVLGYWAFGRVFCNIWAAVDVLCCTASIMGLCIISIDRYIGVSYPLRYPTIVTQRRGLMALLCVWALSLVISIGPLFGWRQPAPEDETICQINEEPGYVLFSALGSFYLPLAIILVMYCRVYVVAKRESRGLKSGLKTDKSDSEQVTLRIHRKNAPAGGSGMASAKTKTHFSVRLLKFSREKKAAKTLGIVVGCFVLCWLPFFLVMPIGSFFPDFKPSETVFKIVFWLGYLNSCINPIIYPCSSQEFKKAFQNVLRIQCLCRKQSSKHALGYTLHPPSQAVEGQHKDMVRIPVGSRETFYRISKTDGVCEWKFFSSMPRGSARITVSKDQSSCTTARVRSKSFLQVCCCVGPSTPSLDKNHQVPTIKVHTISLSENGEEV
Nature of the test: PDSP radioligand binding, α1A adrenergic receptor.

Another test concerns the target T6, 5-HT1A receptor (Homo sapiens, UniProt P08908).
T6 sequence (P08908 1-422): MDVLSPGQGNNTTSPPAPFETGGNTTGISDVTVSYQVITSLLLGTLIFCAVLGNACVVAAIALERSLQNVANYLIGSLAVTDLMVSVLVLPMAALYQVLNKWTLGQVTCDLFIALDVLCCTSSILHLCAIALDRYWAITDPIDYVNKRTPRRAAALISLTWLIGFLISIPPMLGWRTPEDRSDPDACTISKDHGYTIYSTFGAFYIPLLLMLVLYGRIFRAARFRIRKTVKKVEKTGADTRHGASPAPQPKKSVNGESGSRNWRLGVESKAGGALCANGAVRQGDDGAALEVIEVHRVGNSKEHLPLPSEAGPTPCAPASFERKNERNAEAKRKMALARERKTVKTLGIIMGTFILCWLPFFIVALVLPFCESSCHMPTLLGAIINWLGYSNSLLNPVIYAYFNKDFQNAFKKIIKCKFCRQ
Nature of the test: PDSP radioligand binding, 5-HT1A receptor.

The next test addresses T7, α1B adrenergic receptor (Homo sapiens, UniProt P35368).
T7 sequence (P35368 1-520): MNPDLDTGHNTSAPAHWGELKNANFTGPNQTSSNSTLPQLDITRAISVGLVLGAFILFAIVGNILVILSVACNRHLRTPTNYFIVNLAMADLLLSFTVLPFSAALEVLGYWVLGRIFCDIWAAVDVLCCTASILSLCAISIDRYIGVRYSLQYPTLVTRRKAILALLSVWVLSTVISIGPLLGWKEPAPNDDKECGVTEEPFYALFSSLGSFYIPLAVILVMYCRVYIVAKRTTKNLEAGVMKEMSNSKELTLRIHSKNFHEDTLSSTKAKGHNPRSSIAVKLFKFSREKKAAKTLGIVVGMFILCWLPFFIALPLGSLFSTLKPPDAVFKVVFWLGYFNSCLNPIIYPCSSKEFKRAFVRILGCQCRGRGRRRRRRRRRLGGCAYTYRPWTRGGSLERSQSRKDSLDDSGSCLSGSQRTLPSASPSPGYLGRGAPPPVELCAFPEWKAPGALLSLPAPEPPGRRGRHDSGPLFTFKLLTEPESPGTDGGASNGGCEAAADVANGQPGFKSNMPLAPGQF
Nature of the test: PDSP radioligand binding, α1B adrenergic receptor. The settings on record: for inhibition at 10 µM: read-out: Ki α1B.

The target of the next test is D5 receptor (Homo sapiens, UniProt P21918). Nature of the test: PDSP radioligand binding, dopamine D5 receptor. The following applies: read-out: Ki D5.
D5 receptor, sequence (P21918 whole entry): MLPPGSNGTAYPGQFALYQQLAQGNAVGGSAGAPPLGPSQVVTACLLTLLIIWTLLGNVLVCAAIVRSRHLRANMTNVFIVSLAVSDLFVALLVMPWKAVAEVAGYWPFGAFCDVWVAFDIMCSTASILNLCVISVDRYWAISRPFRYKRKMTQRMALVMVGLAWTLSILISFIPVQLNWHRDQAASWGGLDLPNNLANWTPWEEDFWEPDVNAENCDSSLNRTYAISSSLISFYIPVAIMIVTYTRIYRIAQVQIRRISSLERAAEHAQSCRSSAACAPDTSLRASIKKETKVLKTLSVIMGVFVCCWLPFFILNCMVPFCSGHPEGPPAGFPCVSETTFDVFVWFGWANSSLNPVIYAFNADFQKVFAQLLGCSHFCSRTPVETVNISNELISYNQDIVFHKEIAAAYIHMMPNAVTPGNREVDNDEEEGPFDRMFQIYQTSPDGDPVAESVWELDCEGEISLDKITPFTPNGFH
A further test addresses D3 receptor (Homo sapiens, UniProt P35462). Nature of the test: PDSP radioligand binding, dopamine D3 receptor.
The target of another test is 5-HT2A receptor (Homo sapiens, UniProt P28223). Nature of the test: PDSP radioligand binding, 5-HT2A receptor.
5-HT2A receptor, sequence (P28223 whole entry): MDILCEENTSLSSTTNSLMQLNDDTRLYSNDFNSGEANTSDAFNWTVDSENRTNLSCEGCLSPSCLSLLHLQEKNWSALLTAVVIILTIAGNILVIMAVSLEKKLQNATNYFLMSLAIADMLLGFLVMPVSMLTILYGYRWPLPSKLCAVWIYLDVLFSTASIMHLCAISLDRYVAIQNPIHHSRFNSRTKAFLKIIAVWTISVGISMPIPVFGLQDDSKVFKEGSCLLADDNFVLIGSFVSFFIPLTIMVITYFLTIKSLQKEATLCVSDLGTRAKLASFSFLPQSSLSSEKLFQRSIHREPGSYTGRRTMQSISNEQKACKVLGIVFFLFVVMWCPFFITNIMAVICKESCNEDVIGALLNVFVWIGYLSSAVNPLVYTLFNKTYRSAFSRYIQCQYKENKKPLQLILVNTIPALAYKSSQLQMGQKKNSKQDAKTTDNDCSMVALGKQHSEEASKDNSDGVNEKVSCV
In the next test the target is 5-HT1B receptor (Homo sapiens, UniProt P28222). Nature of the test: PDSP radioligand binding, 5-HT1B receptor.
5-HT1B receptor, sequence (P28222 whole entry): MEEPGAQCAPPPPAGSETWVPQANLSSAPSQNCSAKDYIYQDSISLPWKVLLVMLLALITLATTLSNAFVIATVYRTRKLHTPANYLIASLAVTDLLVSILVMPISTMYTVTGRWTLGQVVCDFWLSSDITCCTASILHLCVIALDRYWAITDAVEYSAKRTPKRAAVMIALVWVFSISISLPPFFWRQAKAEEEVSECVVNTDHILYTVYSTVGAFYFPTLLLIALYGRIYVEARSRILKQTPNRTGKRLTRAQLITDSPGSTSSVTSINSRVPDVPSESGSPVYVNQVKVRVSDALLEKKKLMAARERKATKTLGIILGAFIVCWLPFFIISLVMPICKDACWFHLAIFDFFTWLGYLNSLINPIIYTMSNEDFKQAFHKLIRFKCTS
The next test addresses D2 receptor (Homo sapiens, UniProt P14416). Nature of the test: PDSP radioligand binding, dopamine D2 receptor.

pKi: −log10 of the molar value.

5-HT5A receptor, sequence (P47898 whole entry): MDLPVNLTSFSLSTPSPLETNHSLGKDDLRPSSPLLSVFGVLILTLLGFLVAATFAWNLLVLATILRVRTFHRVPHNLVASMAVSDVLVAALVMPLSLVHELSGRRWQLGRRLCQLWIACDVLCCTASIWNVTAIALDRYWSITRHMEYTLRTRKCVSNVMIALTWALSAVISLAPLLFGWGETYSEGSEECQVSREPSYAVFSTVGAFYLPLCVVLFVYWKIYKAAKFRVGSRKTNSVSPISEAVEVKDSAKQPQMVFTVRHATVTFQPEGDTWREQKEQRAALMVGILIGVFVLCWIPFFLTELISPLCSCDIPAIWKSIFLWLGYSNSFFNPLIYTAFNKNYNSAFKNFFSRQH
D3 receptor, sequence (P35462 whole entry): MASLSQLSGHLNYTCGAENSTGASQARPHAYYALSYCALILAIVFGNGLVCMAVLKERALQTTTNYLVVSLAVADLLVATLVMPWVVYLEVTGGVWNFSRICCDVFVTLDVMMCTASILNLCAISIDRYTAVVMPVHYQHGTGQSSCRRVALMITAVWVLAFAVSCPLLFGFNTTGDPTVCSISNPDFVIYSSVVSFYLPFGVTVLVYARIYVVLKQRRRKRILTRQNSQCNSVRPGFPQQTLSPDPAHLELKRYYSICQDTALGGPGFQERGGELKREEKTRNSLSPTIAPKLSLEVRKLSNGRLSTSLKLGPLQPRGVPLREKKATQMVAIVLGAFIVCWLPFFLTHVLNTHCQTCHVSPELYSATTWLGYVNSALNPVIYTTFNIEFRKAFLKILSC
D1 receptor, sequence (P21728 whole entry): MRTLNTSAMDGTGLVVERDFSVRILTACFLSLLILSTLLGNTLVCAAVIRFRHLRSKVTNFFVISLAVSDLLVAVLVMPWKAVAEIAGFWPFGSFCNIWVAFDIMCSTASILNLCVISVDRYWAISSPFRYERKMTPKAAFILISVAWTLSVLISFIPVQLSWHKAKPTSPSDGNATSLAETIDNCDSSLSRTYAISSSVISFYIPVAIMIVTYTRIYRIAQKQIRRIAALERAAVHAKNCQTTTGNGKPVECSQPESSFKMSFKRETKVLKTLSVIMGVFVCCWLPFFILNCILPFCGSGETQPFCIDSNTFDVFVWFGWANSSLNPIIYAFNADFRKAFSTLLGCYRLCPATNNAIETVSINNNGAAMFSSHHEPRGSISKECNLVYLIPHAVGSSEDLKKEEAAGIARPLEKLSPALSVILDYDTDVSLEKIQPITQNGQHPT
D2 receptor, sequence (P14416 whole entry): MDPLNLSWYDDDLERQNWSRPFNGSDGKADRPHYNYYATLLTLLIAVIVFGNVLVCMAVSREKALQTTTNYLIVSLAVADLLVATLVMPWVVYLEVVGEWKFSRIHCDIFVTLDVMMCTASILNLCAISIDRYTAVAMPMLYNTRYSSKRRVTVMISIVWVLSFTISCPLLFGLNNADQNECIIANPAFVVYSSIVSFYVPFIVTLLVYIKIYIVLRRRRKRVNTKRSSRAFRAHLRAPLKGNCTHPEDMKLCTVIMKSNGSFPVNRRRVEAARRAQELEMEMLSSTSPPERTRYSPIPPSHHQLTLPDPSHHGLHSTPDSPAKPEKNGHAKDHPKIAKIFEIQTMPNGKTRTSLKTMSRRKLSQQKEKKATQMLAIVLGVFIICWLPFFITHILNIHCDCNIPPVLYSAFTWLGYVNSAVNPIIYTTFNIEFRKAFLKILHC

For `Oc1cc2c3c(c1O)-c1ccccc1C3CNCC2` (stereo not shown) [Compound 11, 2,3,4,11b-tetrahydro-1H-fluoreno[9,1-cd]azepine-6,7-diol], the pKi on α2C adrenergic receptor was 5.96; on 5-HT5A receptor it was 6.61; at α2B adrenergic receptor, 5.66; at 5-HT6 receptor it was 7.42; at D1 receptor it was 5.05; on α2A adrenergic receptor it was 5.59. The pKi at α1A adrenergic receptor is 5.50; on 5-HT1A receptor it was 6.82; on D3 receptor, 5.53; at 5-HT2A receptor, 5.81; at 5-HT1B receptor, 6.35. Besides, the inhibition at 10 µM at D4 receptor, at α1B adrenergic receptor and at D5 receptor was under 10% throughout.

`COc1cc2c3c(c1OC)-c1ccccc1C3CN(C)CC2` (stereo not shown) [Compound 12, 6,7-dimethoxy-2-methyl-2,3,4,11b-tetrahydro-1H-fluoreno[9,1-cd]azepine]: the pKi at α2C adrenergic receptor is 6.33; at 5-HT5A receptor, 6.54; on 5-HT6 receptor, 8.30; on D1 receptor, 5.61; on α2A adrenergic receptor, 5.93; at α1A adrenergic receptor, 5.54. Besides, the pKi on D2 receptor was 6.20; on α1B adrenergic receptor, 5.23; on D3 receptor it was 7.10; on 5-HT2A receptor, 6.09. Besides, the inhibition at 10 µM on α2B adrenergic receptor (read-out: Ki α2B), on D4 receptor, at 5-HT1A receptor (read-out: Ki 5-HT1A), on D5 receptor and at 5-HT1B receptor (read-out: Ki 5-HT1B) was under 10% in each case. Further, on 5-HT6 receptor, the “5-HT6 selectivity versus the other receptors tested” value is recorded as “at least 15 fold”.

Regarding `CN1CCc2cc(O)c(O)c3c2C(C1)c1ccccc1-3` (stereo not shown) [Compound 13, 2-methyl-2,3,4,11b-tetrahydro-1H-fluoreno[9,1-cd]azepine-6,7-diol], the pKi is 5.71 at α2C adrenergic receptor; 6.44 on 5-HT5A receptor; 5.23 on α2B adrenergic receptor; 6.91 on 5-HT6 receptor; 6.06 at D1 receptor; under 5.00 at α1A adrenergic receptor. Besides, the values for the negative-log Ki (pKi) at 5-HT1A receptor, on 5-HT2A receptor and on 5-HT1B receptor were 6.41, 6.45 and 5.99, respectively. Also, the inhibition at 10 µM at D4 receptor, on α2A adrenergic receptor (read-out: Ki α2A), on D2 receptor (read-out: Ki D2), at α1B adrenergic receptor, at D5 receptor and on D3 receptor (read-out: Ki D3) was under 10% each time.

`COc1cc2c3c(c1OC)-c1ccccc1C3CNCC2` (stereo not shown) [Compound 10, 6,7-dimethoxy-2,3,4,11b-tetrahydro-1H-fluoreno[9,1-cd]azepine]: the pKi is 6.11 on α2C adrenergic receptor; 6.24 at 5-HT5A receptor; 5.95 on α2B adrenergic receptor; 8.30 at 5-HT6 receptor; 5.80 on α2A adrenergic receptor; 6.26 at α1A adrenergic receptor. Also, the pKi is 6.96 on 5-HT1A receptor; 6.11 on D2 receptor; 5.59 at α1B adrenergic receptor; 6.38 on D3 receptor; 5.77 at 5-HT2A receptor; 6.59 at 5-HT1B receptor. The “5-HT6 selectivity versus the other receptors tested” value on 5-HT6 receptor is listed as “at least 15 fold”. The inhibition at 10 µM at D4 receptor, at D1 receptor (read-out: Ki D1) and at D5 receptor was under 10% in each case.
